Data: ChEMBL document CHEMBL1201862, “PubChem BioAssay data set” (2004)
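Interpolation was linear, between the two tested concentrations surrounding the appropriate level; five concentrations were tested over 48 hours in 96-well plates. GI50 marks 50% less growth.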 Activity calls are given as the source filed them. No stated cut-off is given here; in the data, active = GI50 up to about 1.1 µM and inactive = higher. Where a SMILES comes first, the peptide text is derived from it. [ ]: non-standard residue; d: D form. Ac5c = NC1(C(=O)O)CCCC1

Key:
Assay in all cases: NCI-60 cell line screen, 48 h
A498 = tested on: A498
A549 = tested on: A549
ACHN = tested on: ACHN
CAKI-1 = tested on: CAKI-1
DU-145 = tested on: DU-145
HCT-116 = tested on: HCT-116
IGROV-1 = tested on: IGROV-1
MCF7 = tested on: MCF7
OVCAR-4 = tested on: OVCAR-4
PC-3 = tested on: PC-3
SF-268 = tested on: SF-268
SF-295 = tested on: SF-295
SK-OV-3 = tested on: SK-OV-3
SNB-19 = tested on: SNB-19
SNB-75 = tested on: SNB-75
UACC-257 = tested on: UACC-257
HL-60 = tested on: HL-60
OVCAR-3 = tested on: OVCAR-3
SR = tested on: SR
T47D = tested on: T47D

Measured: GI50

Nn1c(CCCCCCCCc2nnc(COc3c(O)ccc4ccccc34)n2N)nnc1COc1c(O)ccc2ccccc12
inactive: A498 > 100 µM | A549 > 100 µM | ACHN > 100 µM | CAKI-1 27.2 µM | DU-145 > 100 µM | HCT-116 49.5 µM | IGROV-1 > 100 µM | MCF7 > 100 µM | OVCAR-4 59.6 µM | PC-3 > 100 µM | SF-268 > 100 µM | SF-295 > 100 µM | SK-OV-3 > 100 µM | SNB-19 > 100 µM | SNB-75 > 100 µM | UACC-257 > 100 µM

Cc1ccc(NC(=O)C(=O)C2C(=O)C3=C(CC2(C)C)NC2C=CC=CC2S3)c(C)c1 (stereo not given)
inactive: A549 > 100 µM | ACHN > 100 µM | CAKI-1 > 100 µM | DU-145 > 100 µM | HCT-116 > 100 µM | HL-60 > 100 µM | IGROV-1 49.3 µM | MCF7 > 100 µM | OVCAR-4 > 100 µM | PC-3 > 100 µM | SF-268 36.8 µM | SF-295 > 100 µM | SK-OV-3 > 100 µM | SNB-19 > 100 µM | SNB-75 30.4 µM | UACC-257 > 100 µM

CCCCc1ccc(C#CC#Cc2ccc(CCCC)s2)s1
inactive: A498 > 100 µM | ACHN > 100 µM | CAKI-1 > 100 µM | DU-145 > 100 µM | HCT-116 > 100 µM | HL-60 24.8 µM | IGROV-1 > 100 µM | MCF7 > 100 µM | OVCAR-3 > 100 µM | OVCAR-4 > 100 µM | SF-268 > 100 µM | SF-295 > 100 µM | SK-OV-3 > 100 µM | SNB-75 > 100 µM | SR > 100 µM | T47D > 100 µM | UACC-257 > 100 µM

CN1C(=O)c2ccccc2C(O)(c2ccccc2)C1(O)c1ccccc1 (stereo not given)
inactive: A498 > 100 µM | A549 69.5 µM | ACHN > 100 µM | CAKI-1 43.4 µM | HCT-116 95.3 µM | IGROV-1 58.5 µM | OVCAR-3 > 100 µM | OVCAR-4 72.8 µM | PC-3 52.6 µM | SF-268 55.5 µM | SF-295 > 100 µM | SK-OV-3 52.4 µM | SNB-19 > 100 µM | SNB-75 91 µM | SR 43 µM | T47D 61.2 µM | UACC-257 > 100 µM

CC1OC(n2cnc3c(N)nc(Cl)nc32)C(C)(O)C1O (stereo not given)
inactive: A498 > 25 µM | A549 > 25 µM | ACHN > 25 µM | CAKI-1 > 25 µM | DU-145 > 25 µM | HCT-116 > 25 µM | HL-60 > 25 µM | IGROV-1 > 25 µM | MCF7 > 25 µM | OVCAR-3 > 25 µM | OVCAR-4 > 25 µM | SF-268 > 25 µM | SF-295 > 25 µM | SK-OV-3 > 25 µM | SNB-19 > 25 µM | SNB-75 1.41 µM | SR > 25 µM | T47D > 25 µM | UACC-257 > 25 µM

O=C(Nc1ccc(Br)cc1)C(=O)C(C(=O)c1ccc(Cl)c(Cl)c1)C1OC(=O)c2ccccc21 (stereo not given)
inactive: A498 16.2 µM | A549 16.4 µM | ACHN 16.3 µM | CAKI-1 14.4 µM | HCT-116 12.5 µM | HL-60 17.2 µM | IGROV-1 18.5 µM | OVCAR-3 18.5 µM | OVCAR-4 16.3 µM | SF-268 4.99 µM | SF-295 15.2 µM | SK-OV-3 35.1 µM | SNB-19 16.7 µM | SNB-75 20.8 µM | SR 17.3 µM | UACC-257 16 µM

CN(CCO)CCCC1COc2ccccc2O1 (stereo not given)
inactive: A549 > 100 µM | ACHN 63.8 µM | CAKI-1 > 100 µM | DU-145 > 100 µM | HCT-116 > 100 µM | HL-60 > 100 µM | IGROV-1 > 100 µM | MCF7 > 100 µM | OVCAR-3 > 100 µM | OVCAR-4 > 100 µM | PC-3 > 100 µM | SF-268 20.7 µM | SF-295 51.3 µM | SK-OV-3 > 100 µM | SNB-19 > 100 µM | SNB-75 > 100 µM | SR > 100 µM | UACC-257 > 100 µM

COc1ccccc1-c1cc(=O)c2ccc(OC)c(OC)c2o1
inactive: A498 37.8 µM | A549 45.6 µM | ACHN 39.4 µM | CAKI-1 > 100 µM | DU-145 55.5 µM | HCT-116 45.9 µM | HL-60 27.5 µM | IGROV-1 97.1 µM | MCF7 45.9 µM | OVCAR-3 31.6 µM | OVCAR-4 38.4 µM | SF-268 > 100 µM | SF-295 40.8 µM | SK-OV-3 66.7 µM | SNB-19 82.2 µM | SNB-75 70.5 µM | SR > 100 µM | T47D 19.3 µM | UACC-257 44.9 µM

COc1c(Br)cc(/C=C(\C#N)c2cccnc2)cc1Br
inactive: A549 53.1 µM | ACHN 93.3 µM | CAKI-1 > 100 µM | DU-145 > 100 µM | HCT-116 > 100 µM | HL-60 36.2 µM | IGROV-1 63 µM | MCF7 35.8 µM | OVCAR-3 99.1 µM | OVCAR-4 81.5 µM | PC-3 45.4 µM | SF-268 67.6 µM | SF-295 52.7 µM | SK-OV-3 56.9 µM | SNB-19 > 100 µM | SNB-75 > 100 µM | SR 29.5 µM | UACC-257 > 100 µM

COC(CCC[N+](C)(C)C)CC[N+](C)(C)C (stereo not given)
inactive: A549 > 100 µM | ACHN > 100 µM | CAKI-1 > 100 µM | DU-145 > 100 µM | HCT-116 > 100 µM | HL-60 > 100 µM | IGROV-1 > 100 µM | MCF7 > 100 µM | OVCAR-3 > 100 µM | OVCAR-4 > 100 µM | PC-3 > 100 µM | SF-268 > 100 µM | SF-295 > 100 µM | SK-OV-3 > 100 µM | SNB-19 > 100 µM | SNB-75 > 100 µM | SR > 100 µM | UACC-257 > 100 µM

COC(=O)C1(NC(=O)C(C)NC(=O)C(CCCCN)NC(=O)C(CC(C)C)NC(C)=O)CCCC1 (stereo not given) (Ac-LKA[Ac5c]-OMe; configuration not given here)
inactive: A549 > 100 µM | ACHN > 100 µM | HCT-116 > 100 µM | HL-60 > 100 µM | IGROV-1 > 100 µM | MCF7 > 100 µM | OVCAR-4 > 10 µM | PC-3 > 100 µM | SF-268 > 100 µM | SF-295 > 100 µM | SK-OV-3 > 100 µM | SNB-19 > 100 µM | SNB-75 > 100 µM | SR > 100 µM | T47D > 100 µM | UACC-257 > 100 µM
